Patent US20260022142A1, “MACROCYCLIC IMMUNOMODULATORS” (Bristol-Myers Squibb Company, priority 2022, published 2026)
Bridge positions count the residues as written; N and C are the ends. Square brackets hold non-standard residues; d marks the D form. Peptide text beside a SMILES is read from it. * marks the point of attachment. ξ: configuration not given here. Phe(4-CF3) = N[C@@H](Cc1ccc(C(F)(F)F)cc1)C(=O)O; Phe(4-COOH) = N[C@@H](Cc1ccc(C(=O)O)cc1)C(=O)O; Bip = N[C@@H](Cc1ccc(-c2ccccc2)cc1)C(=O)O; Phe(3-Me) = Cc1cccc(C[C@H](N)C(=O)O)c1; Phe(4-F) = N[C@@H](Cc1ccc(F)cc1)C(=O)O; NH(CH2)12COOH = O=C(O)CCCCCCCCCCCCN*; Val(3-OH) = CC(C)(O)[C@H](N)C(=O)O; Cha = N[C@@H](CC1CCCCC1)C(=O)O; Ile(3ξ) = CCC(C)[C@H](N)C(=O)O; Thr(3ξ) = CC(O)[C@H](N)C(=O)O; Carboxymethyl = O=C(O)C*; Nle = CCCC[C@H](N)C(=O)O; Orn = NCCC[C@H](N)C(=O)O; Aun = NCCCCCCCCCCC(=O)O; Dab = NCC[C@H](N)C(=O)O; Nva = CCC[C@H](N)C(=O)O; AEEA = NCCOCCOCC(=O)O

Biological target: T1, PD-1/PD-L1 interaction (PE-labeled human PD-L1-Ig binding to Jurkat cell line over-expressing human PD-1) (Homo sapiens, UniProt Q15116)
T1 construct: expressed in transfected cells; host or cells: Jurkat
T1 sequence (Q15116 25-288): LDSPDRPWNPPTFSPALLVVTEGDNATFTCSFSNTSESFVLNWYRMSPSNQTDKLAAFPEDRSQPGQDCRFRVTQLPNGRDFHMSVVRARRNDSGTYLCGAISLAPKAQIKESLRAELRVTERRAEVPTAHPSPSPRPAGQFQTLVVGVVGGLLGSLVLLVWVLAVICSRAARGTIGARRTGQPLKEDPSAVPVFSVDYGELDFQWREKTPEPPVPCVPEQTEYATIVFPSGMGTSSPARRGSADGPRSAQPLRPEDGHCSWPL
Test: Jurkat-PD-1 Cell Binding High-Content Screening Assay (CBA)
Type: cell-based
Conditions: Jurkat cell line over-expressing human PD-1; PE-labeled PD-L1-Ig 20 nM final; read-out: Jurkat hPD1-PDL1 IC50
Outline: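 Binding of fluorescent PD-L1-Ig (20 nM final) to Jurkat-PD-1 cells was measured by automated imaging after 1 h, following a 2 h compound pre-treatment at 37° C.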

Row | Structure (SMILES) | IC50 [nM]
1 | Cc1cccc(C[C@@H]2NC(=O)[C@H](CC(=O)O)NC(=O)[C@H](Cc3ccc(OCC(=O)O)cc3)NC(=O)[C@H](CCN)NC(=O)CSC[C@@H](C(=O)N[C@@H](CCN)C(=O)NCCOCCOCC(=O)NCCCCCCCCCCC(=O)O)NC(=O)[C@H](CC(=O)O)NC(=O)[C@H](C(C)C)NC(=O)[C@H](CC3CCCCC3)NC(=O)[C@H](CCN)NC(=O)[C@@H](CC(C)C)NC(=O)[C@H](CCCN)NC(=O)[C@H](Cc3ccc(OCC(=O)O)cc3)NC(=O)[C@H](Cc3ccc(-c4ccccc4)cc3)NC(=O)[C@H](Cc3ccc(OCC(=O)O)cc3)NC2=O)c1 [Compound 3801] ({CH2CO}-[Dab]Y(Carboxymethyl)D[Phe(3-Me)]Y(Carboxymethyl)[Bip]Y(Carboxymethyl)[Orn][dL][Dab][Cha]VDC[Dab][AEEA][Aun]-OH; thioether N-14) | 2.5
2 | CCC(C)[C@@H]1NC(=O)[C@H](Cc2ccc(-c3ccccc3)cc2)NC(=O)[C@H](C(C)C)NC(=O)[C@H](Cc2c[nH]c3ccccc23)NC(=O)[C@H](CC(=O)O)NC(=O)[C@H](Cc2ccc(OCC(=O)O)cc2)NC(=O)[C@H](Cc2ccc(F)cc2)NC(=O)CSC[C@@H](C(=O)N[C@@H](CCN)C(=O)NCCOCCOCC(=O)NCCCCCCCCCCC(=O)O)NC(=O)[C@H](CC(=O)O)NC(=O)[C@H](C(C)O)NC(=O)[C@H](CC2CCCCC2)NC(=O)[C@H](CCN)NC(=O)[C@@H](CC(C)C)NC(=O)[C@H](CCCN)NC1=O (stereo partly drawn) [Compound 3802] ({CH2CO}-[Phe(4-F)]Y(Carboxymethyl)DWV[Bip][Ile(3ξ)][Orn][dL][Dab][Cha][Thr(3ξ)]DC[Dab][AEEA][Aun]-OH; thioether N-14) | 36.6
3 | CCC[C@@H]1NC(=O)CSC[C@@H](C(=O)N[C@@H](CCN)C(=O)NCCOCCOCC(=O)NCCCCCCCCCCC(=O)O)NC(=O)[C@H](Cc2cnc[nH]2)NC(=O)[C@H](C(C)C)NC(=O)[C@H](CC2CCCCC2)NC(=O)[C@H](CCN)NC(=O)[C@@H](CC(C)C)NC(=O)[C@H](CCCN)NC(=O)[C@H](Cc2ccc(OCC(=O)O)cc2)NC(=O)[C@H](Cc2ccc(-c3ccccc3)cc2)NC(=O)[C@H](Cc2ccc(OCC(=O)O)cc2)NC(=O)[C@H](Cc2cccc(C)c2)NC(=O)[C@H](CC(=O)O)NC(=O)[C@H](Cc2ccc(OCC(=O)O)cc2)NC1=O [Compound 3803] ({CH2CO}-[Nva]Y(Carboxymethyl)D[Phe(3-Me)]Y(Carboxymethyl)[Bip]Y(Carboxymethyl)[Orn][dL][Dab][Cha]VHC[Dab][AEEA][Aun]-OH; thioether N-14) | 2.7
4 | CCC[C@@H]1NC(=O)CSC[C@@H](C(=O)N[C@@H](CCN)C(=O)NCCOCCOCC(=O)NCCCCCCCCCCC(=O)O)NC(=O)[C@H](CC(=O)O)NC(=O)[C@H](C(C)C)NC(=O)[C@H](CC2CCCCC2)NC(=O)[C@H](CCN)NC(=O)[C@@H](CC(C)C)NC(=O)[C@H](CCCN)NC(=O)[C@H](Cc2ccc(OCC(=O)O)cc2)NC(=O)[C@H](Cc2ccc(-c3ccccc3)cc2)NC(=O)[C@H](Cc2ccc(OCC(=O)O)cc2)NC(=O)[C@H](Cc2cccc(C)c2)NC(=O)[C@H](CC(=O)O)NC(=O)[C@H](Cc2ccc(OCC(=O)O)cc2)NC1=O [Compound 3804] ({CH2CO}-[Nva]Y(Carboxymethyl)D[Phe(3-Me)]Y(Carboxymethyl)[Bip]Y(Carboxymethyl)[Orn][dL][Dab][Cha]VDC[Dab][AEEA][Aun]-OH; thioether N-14) | 0.2
5 | Cc1cccc(C[C@@H]2NC(=O)[C@H](CC(=O)O)NC(=O)[C@H](Cc3ccc(OCC(=O)O)cc3)NC(=O)[C@H](CCN)NC(=O)CSC[C@@H](C(=O)N[C@@H](CCN)C(=O)NCCOCCOCC(=O)NCCCCCCCCCCC(=O)O)NC(=O)[C@H](Cc3cnc[nH]3)NC(=O)[C@H](C(C)O)NC(=O)[C@H](CC3CCCCC3)NC(=O)[C@H](CCN)NC(=O)[C@@H](CC(C)C)NC(=O)[C@H](CCCN)NC(=O)[C@H](Cc3ccc(OCC(=O)O)cc3)NC(=O)[C@H](Cc3ccc(-c4ccccc4)cc3)NC(=O)[C@H](Cc3ccc(OCC(=O)O)cc3)NC2=O)c1 (stereo partly drawn) [Compound 3805] ({CH2CO}-[Dab]Y(Carboxymethyl)D[Phe(3-Me)]Y(Carboxymethyl)[Bip]Y(Carboxymethyl)[Orn][dL][Dab][Cha][Thr(3ξ)]HC[Dab][AEEA][Aun]-OH; thioether N-14) | 1.2
6 | Cc1cccc(C[C@@H]2NC(=O)[C@H](CC(=O)O)NC(=O)[C@H](Cc3ccc(OCC(=O)O)cc3)NC(=O)[C@H](C(C)O)NC(=O)CSC[C@@H](C(=O)N[C@@H](CCN)C(=O)NCCOCCOCC(=O)NCCCCCCCCCCC(=O)O)NC(=O)[C@H](CCC(=O)O)NC(=O)[C@H](C(C)C)NC(=O)[C@H](CC3CCCCC3)NC(=O)[C@H](CCN)NC(=O)[C@@H](CC(C)C)NC(=O)[C@H](CCCN)NC(=O)[C@H](Cc3ccc(OCC(=O)O)cc3)NC(=O)[C@H](Cc3ccc(-c4ccccc4)cc3)NC(=O)[C@H](Cc3ccc(OCC(=O)O)cc3)NC2=O)c1 (stereo partly drawn) [Compound 3806] ({CH2CO}-[Thr(3ξ)]Y(Carboxymethyl)D[Phe(3-Me)]Y(Carboxymethyl)[Bip]Y(Carboxymethyl)[Orn][dL][Dab][Cha]VEC[Dab][AEEA][Aun]-OH; thioether N-14) | 5.2
7 | CCC[C@@H]1NC(=O)CSC[C@@H](C(=O)N[C@@H](CCN)C(=O)NCCOCCOCC(=O)NCCCCCCCCCCC(=O)O)NC(=O)[C@H](CCC(=O)O)NC(=O)[C@H](CO)NC(=O)[C@H](CC2CCCCC2)NC(=O)[C@H](CCN)NC(=O)[C@@H](CC(C)C)NC(=O)[C@H](CCCN)NC(=O)[C@H](Cc2ccc(OCC(=O)O)cc2)NC(=O)[C@H](Cc2ccc(-c3ccccc3)cc2)NC(=O)[C@H](Cc2ccc(OCC(=O)O)cc2)NC(=O)[C@H](Cc2cccc(C)c2)NC(=O)[C@H](CC(=O)O)NC(=O)[C@H](Cc2ccc(OCC(=O)O)cc2)NC1=O [Compound 3807] ({CH2CO}-[Nva]Y(Carboxymethyl)D[Phe(3-Me)]Y(Carboxymethyl)[Bip]Y(Carboxymethyl)[Orn][dL][Dab][Cha]SEC[Dab][AEEA][Aun]-OH; thioether N-14) | 20.4
8 | CCCC[C@@H]1NC(=O)CSC[C@@H](C(=O)N[C@@H](CCN)C(=O)NCCOCCOCC(=O)NCCOCCOCC(=O)NCCCCCCCCCCCCC(=O)O)NC(=O)[C@H](CCC(=O)O)NC(=O)[C@H](C(C)C)NC(=O)[C@H](CC2CCCCC2)NC(=O)[C@H](CCN)NC(=O)[C@@H](CC(C)C)NC(=O)[C@H](CCCN)NC(=O)[C@H](Cc2ccc(C(=O)O)cc2)NC(=O)[C@H](Cc2ccc(-c3ccccc3)cc2)NC(=O)[C@H](Cc2ccc(C(=O)O)cc2)NC(=O)[C@H](Cc2cccc(C)c2)NC(=O)[C@H](CC(=O)O)NC(=O)[C@H](Cc2ccc(OCC(=O)O)cc2)NC1=O [Compound 3809] ({CH2CO}-[Nle]Y(Carboxymethyl)D[Phe(3-Me)][Phe(4-COOH)][Bip][Phe(4-COOH)][Orn][dL][Dab][Cha]VEC[Dab][AEEA][AEEA]-{NH(CH2)12COOH}; thioether N-14) | 15.4
9 | Cc1cccc(C[C@@H]2NC(=O)[C@H](CC(=O)O)NC(=O)[C@H](Cc3ccc(OCC(=O)O)cc3)NC(=O)[C@H](C(C)O)NC(=O)CSC[C@@H](C(=O)N[C@@H](CCN)C(=O)NCCCCCCCCCCCCC(=O)O)NC(=O)[C@H](CO)NC(=O)[C@H](C(C)(C)O)NC(=O)[C@H](CC3CCCCC3)NC(=O)[C@H](CCN)NC(=O)[C@@H](CC(C)C)NC(=O)[C@H](CCCN)NC(=O)[C@H](Cc3ccc(OCC(=O)O)cc3)NC(=O)[C@H](Cc3ccc(-c4ccccc4)cc3)NC(=O)[C@H](Cc3ccc(C(F)(F)F)cc3)NC2=O)c1 (stereo partly drawn) [Compound 3810] ({CH2CO}-[Thr(3ξ)]Y(Carboxymethyl)D[Phe(3-Me)][Phe(4-CF3)][Bip]Y(Carboxymethyl)[Orn][dL][Dab][Cha][Val(3-OH)]SC[Dab]-{NH(CH2)12COOH}; thioether N-14) | 19.8
